Data: publication PMC10408569, “Recruitment of hexahydroquinoline as anticancer scaffold targeting inhibition of wild and mutants EGFR (EGFR^WT, EGFR^T790M, and EGFR^L858R)” (Journal of Enzyme Inhibition and Medicinal Chemistry, 2023)

Assays:
[1] = system: CAKI-1; test: NCI-60 anticancer screening (SRB); assay type: cell-based; settings: Homo sapiens; CAKI-1, renal cancer; one dose 10 μM; read-out: Growth Inhibition Percentage (GI %)
[2] = system: SN 12C; test: NCI-60 anticancer screening (SRB); assay type: cell-based; settings: Homo sapiens, SN12C; SN 12C, renal cancer; one dose 10 μM; read-out: Growth Inhibition Percentage (GI %)
[3] = system: UACC-62; test: NCI-60 anticancer screening (SRB); assay type: cell-based; settings: Homo sapiens; UACC-62, melanoma; one dose 10 μM; read-out: Growth Inhibition Percentage (GI %)
[4] = system: KM 12; test: NCI-60 anticancer screening (SRB); assay type: cell-based; settings: Homo sapiens, KM12; KM 12, colon cancer; one dose 10 μM; read-out: Growth Inhibition Percentage (GI %)
[5] = system: 786-0; test: NCI-60 anticancer screening (SRB); assay type: cell-based; settings: Homo sapiens; 786-0, renal cancer; one dose 10 μM; read-out: Growth Inhibition Percentage (GI %)
[6] = system: HT29; test: NCI-60 anticancer screening (SRB); assay type: cell-based; settings: Homo sapiens, HT-29; HT29, colon cancer; one dose 10 μM; read-out: Growth Inhibition Percentage (GI %)
[7] = system: SF-268; test: NCI-60 anticancer screening (SRB); assay type: cell-based; settings: Homo sapiens; SF-268, CNS cancer; one dose 10 μM; read-out: Growth Inhibition Percentage (GI %)
[8] = system: NCI-H322M; test: NCI-60 anticancer screening (SRB); assay type: cell-based; settings: Homo sapiens, NSC lung cancer, one dose 10 μM, read-out: Growth Inhibition Percentage (GI %)
[9] = system: SK-MEL-5; test: NCI-60 anticancer screening (SRB); assay type: cell-based; settings: Homo sapiens; SK-MEL-5, melanoma; one dose 10 μM; read-out: Growth Inhibition Percentage (GI %)
[10] = system: NCI 60 cancer cell lines; test: NCI-60 anticancer screening (SRB), whole panel; assay type: cell-based, human; settings: mean across the NCI-60 panel; one dose 10 μM
[11] = system: HCC-2998; test: NCI-60 anticancer screening (SRB); assay type: cell-based; settings: Homo sapiens; HCC-2998, colon cancer; one dose 10 μM; read-out: Growth Inhibition Percentage (GI %)
[12] = system: SNB-19; test: NCI-60 anticancer screening (SRB); assay type: cell-based; settings: Homo sapiens; SNB-19, CNS cancer; one dose 10 μM; read-out: Growth Inhibition Percentage (GI %)
[13] = system: NCI-H522; test: NCI-60 anticancer screening (SRB); assay type: cell-based; settings: Homo sapiens; NCI-H522, NSC lung cancer; one dose 10 μM; read-out: Growth Inhibition Percentage (GI %)
[14] = system: MDA-MB-435; test: NCI-60 anticancer screening (SRB); assay type: cell-based; settings: Homo sapiens; MDA-MB-435, melanoma; one dose 10 μM; read-out: Growth Inhibition Percentage (GI %)
[15] = system: HCT-15; test: NCI-60 anticancer screening (SRB); assay type: cell-based; settings: Homo sapiens; HCT-15, colon cancer; one dose 10 μM; read-out: Growth Inhibition Percentage (GI %)
[16] = system: RXF 393; test: NCI-60 anticancer screening (SRB); assay type: cell-based; settings: Homo sapiens; RXF 393, renal cancer; one dose 10 μM; read-out: Growth Inhibition Percentage (GI %)
[17] = system: RPMI-8226; test: NCI-60 anticancer screening (SRB); assay type: cell-based; settings: Homo sapiens; RPMI-8226, leukemia; one dose 10 μM; read-out: Growth Inhibition Percentage (GI %)
[18] = system: TK-10; test: NCI-60 anticancer screening (SRB); assay type: cell-based; settings: Homo sapiens; TK-10, renal cancer; one dose 10 μM; read-out: Growth Inhibition Percentage (GI %)
[19] = system: A549/ATCC; test: NCI-60 anticancer screening (SRB); assay type: cell-based; settings: Homo sapiens; A549/ATCC, NSC lung cancer; one dose 10 μM; read-out: Growth Inhibition Percentage (GI %)
[20] = system: T-47D; test: NCI-60 anticancer screening (SRB); assay type: cell-based; settings: Homo sapiens, T47D, breast cancer, one dose 10 μM, read-out: Growth Inhibition Percentage (GI %)
[21] = system: DU-145; test: NCI-60 anticancer screening (SRB); assay type: cell-based; settings: Homo sapiens; DU-145, prostate cancer; one dose 10 μM; read-out: Growth Inhibition Percentage (GI %)
[22] = system: M14; test: NCI-60 anticancer screening (SRB); assay type: cell-based; settings: Homo sapiens; M14, melanoma; one dose 10 μM; read-out: Growth Inhibition Percentage (GI %)
[23] = system: SF-295; test: NCI-60 anticancer screening (SRB); assay type: cell-based; settings: Homo sapiens; SF-295, CNS cancer; one dose 10 μM; read-out: Growth Inhibition Percentage (GI %)
[24] = system: NCI-H460; test: NCI-60 anticancer screening (SRB); assay type: cell-based; settings: Homo sapiens; NCI-H460, NSC lung cancer; one dose 10 μM; read-out: Growth Inhibition Percentage (GI %)
[25] = system: SNB-75; test: NCI-60 anticancer screening (SRB); assay type: cell-based; settings: Homo sapiens; SNB-75, CNS cancer; one dose 10 μM; read-out: Growth Inhibition Percentage (GI %)
[26] = system: MDA-MB-231; test: NCI-60 anticancer screening (SRB); assay type: cell-based; settings: Homo sapiens; MDA-MB-231, breast cancer; one dose 10 μM; read-out: Growth Inhibition Percentage (GI %)
[27] = system: HOP-62; test: NCI-60 anticancer screening (SRB); assay type: cell-based; settings: Homo sapiens; HOP-62, NSC lung cancer; one dose 10 μM; read-out: Growth Inhibition Percentage (GI %)
[28] = system: SK-MEL-28; test: NCI-60 anticancer screening (SRB); assay type: cell-based; settings: Homo sapiens; SK-MEL-28, melanoma; one dose 10 μM; read-out: Growth Inhibition Percentage (GI %)
[29] = system: EKVX; test: NCI-60 anticancer screening (SRB); assay type: cell-based; settings: Homo sapiens, NSC lung cancer, one dose 10 μM, read-out: Growth Inhibition Percentage (GI %)
[30] = system: SF-539; test: NCI-60 anticancer screening (SRB); assay type: cell-based; settings: Homo sapiens; SF-539, CNS cancer; one dose 10 μM; read-out: Growth Inhibition Percentage (GI %)
[31] = system: HL-60(TB); test: NCI-60 anticancer screening (SRB); assay type: cell-based; settings: Homo sapiens, leukemia, one dose 10 μM, read-out: Growth Inhibition Percentage (GI %)
[32] = system: NCI/ADR-RES; test: NCI-60 anticancer screening (SRB); assay type: cell-based; settings: Homo sapiens, ovarian cancer, one dose 10 μM, read-out: Growth Inhibition Percentage (GI %)

SMILES	inhibition at 10 µM [1] [%]	inhibition at 10 µM [2] [%]	inhibition at 10 µM [3] [%]	inhibition at 10 µM [4] [%]	inhibition at 10 µM [5] [%]	inhibition at 10 µM [6] [%]	inhibition at 10 µM [7] [%]	inhibition at 10 µM [8] [%]	inhibition at 10 µM [9] [%]	GI % mean [10]	inhibition at 10 µM [11] [%]	inhibition at 10 µM [12] [%]	inhibition at 10 µM [13] [%]	inhibition at 10 µM [14] [%]	inhibition at 10 µM [15] [%]	inhibition at 10 µM [16] [%]	inhibition at 10 µM [17] [%]	inhibition at 10 µM [18] [%]	inhibition at 10 µM [19] [%]	inhibition at 10 µM [20] [%]	further results
CCOC(=O)C1=C(N)N(c2ccccc2)C2=C(C(=O)CC(C)(C)C2)C1c1cccnc1 (racemic) [12d]	< 10	< 10	12	< 10	< 10	< 10	< 10	< 10	< 10	- ((-) = GI % mean less than 10)	< 10	< 10	15	< 10	< 10	< 10	< 10	< 10	< 10	< 10	inhibition at 10 µM [21]: < 10%; inhibition at 10 µM [22]: < 10%; inhibition at 10 µM [23]: < 10%; inhibition at 10 µM [24]: < 10%; inhibition at 10 µM [25]: 17%; inhibition at 10 µM [26]: < 10%; inhibition at 10 µM [27]: < 10%; inhibition at 10 µM [28]: < 10%; inhibition at 10 µM [29]: < 10%; inhibition at 10 µM [30]: < 10%; inhibition at 10 µM [31]: < 10%; inhibition at 10 µM [32]: 13%
CCOC(=O)C1=C(N)N(c2ccccc2)C2=C(C(=O)CC(C)(C)C2)C1c1ccccn1 (racemic) [12a, (±)-Ethyl 2-amino-7,7-dimethyl-5-oxo-1-phenyl-4-(pyridin-2-yl)-1,4,5,6,7,8-hexahydroquinoline-3-carboxylate]	< 10	< 10	< 10	< 10	< 10	< 10	< 10	< 10	< 10	- ((-) = GI % mean less than 10)	< 10	< 10	11	< 10	< 10	< 10	< 10	< 10	< 10	< 10	inhibition at 10 µM [21]: < 10%; inhibition at 10 µM [22]: < 10%; inhibition at 10 µM [23]: < 10%; inhibition at 10 µM [24]: < 10%; inhibition at 10 µM [25]: 19%; inhibition at 10 µM [26]: < 10%; inhibition at 10 µM [27]: < 10%; inhibition at 10 µM [28]: < 10%; inhibition at 10 µM [29]: < 10%; inhibition at 10 µM [30]: < 10%; inhibition at 10 µM [31]: < 10%; inhibition at 10 µM [32]: < 10%
